From patent publication US8101774B2, “Ester derivatives and medicinal use thereof” (Japan Tobacco Inc., priority 2004, dated 2012) come the findings set out here.

Counter-ions that a name gives are not always drawn.

Broadly, the IC50 is the concentration that gives 50% inhibition. Read a high IC50 as weaker potency.

In the test the target is T1, Microsomal triglyceride transfer protein (MTP) from human small intestine microsome (Homo sapiens, UniProt P55157).
T1 construct: Human small intestine microsome was dialyzed against 10 mM phosphate buffer; tissue Tissue Transforming Technologies, Inc; host or cells: human small intestine microsome
T1 sequence (P55157 19-894): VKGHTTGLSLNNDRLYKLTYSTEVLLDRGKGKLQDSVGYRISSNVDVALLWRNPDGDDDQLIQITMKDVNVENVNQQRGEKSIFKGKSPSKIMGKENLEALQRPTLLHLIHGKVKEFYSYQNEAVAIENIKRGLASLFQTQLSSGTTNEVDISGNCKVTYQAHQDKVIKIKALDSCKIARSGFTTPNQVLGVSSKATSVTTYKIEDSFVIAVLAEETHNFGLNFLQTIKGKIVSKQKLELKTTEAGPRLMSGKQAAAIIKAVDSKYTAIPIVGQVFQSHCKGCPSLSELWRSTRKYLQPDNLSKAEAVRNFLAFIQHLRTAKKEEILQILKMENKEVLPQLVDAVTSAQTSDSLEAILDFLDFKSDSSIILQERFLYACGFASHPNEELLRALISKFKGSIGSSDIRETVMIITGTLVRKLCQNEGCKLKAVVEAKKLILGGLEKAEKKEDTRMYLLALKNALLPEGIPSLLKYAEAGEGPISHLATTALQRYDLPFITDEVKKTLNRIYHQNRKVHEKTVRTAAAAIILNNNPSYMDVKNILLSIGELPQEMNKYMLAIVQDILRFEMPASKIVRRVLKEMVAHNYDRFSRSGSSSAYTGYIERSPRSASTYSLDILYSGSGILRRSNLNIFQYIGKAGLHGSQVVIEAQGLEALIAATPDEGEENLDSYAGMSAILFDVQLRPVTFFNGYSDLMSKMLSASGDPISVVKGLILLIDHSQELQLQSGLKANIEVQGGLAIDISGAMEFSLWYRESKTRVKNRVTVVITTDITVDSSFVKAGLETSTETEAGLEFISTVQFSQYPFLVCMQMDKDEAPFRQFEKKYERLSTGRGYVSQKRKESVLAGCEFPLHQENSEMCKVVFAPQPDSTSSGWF
T1 sequence (P07237 18-508 partner): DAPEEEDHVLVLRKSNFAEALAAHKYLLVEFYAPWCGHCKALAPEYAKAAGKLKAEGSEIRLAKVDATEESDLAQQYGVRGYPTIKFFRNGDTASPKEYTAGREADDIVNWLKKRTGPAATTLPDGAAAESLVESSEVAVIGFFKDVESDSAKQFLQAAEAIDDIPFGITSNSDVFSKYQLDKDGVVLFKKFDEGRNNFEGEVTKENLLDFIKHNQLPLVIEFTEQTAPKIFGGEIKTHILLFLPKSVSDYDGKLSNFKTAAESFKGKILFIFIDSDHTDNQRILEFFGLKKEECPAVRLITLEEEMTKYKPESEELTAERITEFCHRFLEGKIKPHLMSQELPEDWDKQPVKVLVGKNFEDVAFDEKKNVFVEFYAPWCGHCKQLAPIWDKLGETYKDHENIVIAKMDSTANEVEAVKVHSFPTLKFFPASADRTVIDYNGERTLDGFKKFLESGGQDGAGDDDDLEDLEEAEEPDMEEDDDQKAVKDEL
Briefly: Inhibition test of interliposomal triglyceride (TG) transfer activity by MTP. It counts as biochemical. The settings on record: purified MTP from human small intestine microsome, 37° C., 1.5 hours. Summed up:
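DEAE-purified human small intestine MTP (50 μL of 20 μg/mL) incubated 1.5 hours at 37° C with ^14C-triolein donor and unlabelled acceptor SUV liposomes in pH 7.4 Tris buffer with 0.5% BSA. Donor removed on DEAE cellulose; acceptor radioactivity counted, blank-corrected against DMSO control, giving percent inhibition and IC50.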
`CCOc1cc(C(=O)OC)cc(OC)c1OC(=O)CCCc1ccc(NC(=O)c2ccc(C)nc2-c2ccc(C(F)(F)F)cc2)c(C(=O)N(C)C)c1` [Compound 1-49, 4-[4-(3-dimethylcarbamoyl-4-{[6-methyl-2-(4-trifluoromethylphenyl)pyridine-3-carbonyl]amino}phenyl)butyryloxy]-3-ethoxy-5-methoxybenzoic acid methyl ester] showed an IC50 of less than 10 nM.

For `COC(=O)c1cc(Br)c(OC(=O)CCCc2ccc(NC(=O)c3ccc(C)nc3-c3ccc(C(F)(F)F)cc3)c(C(=O)N(C)C)c2)c(OC)c1` [Compound 1-50, 3-bromo-4-[4-(3-dimethylcarbamoyl-4-{[6-methyl-2-(4-trifluoromethylphenyl)pyridine-3-carbonyl]amino}phenyl)butyryloxy]-5-methoxybenzoic acid methyl ester], the IC50 is less than 10 nM.

`CCc1cc(C(=O)OC)cc(C(=O)OC)c1OC(=O)CCCc1ccc(NC(=O)c2ccc(C)nc2-c2ccc(C(F)(F)F)cc2)c(C(=O)N(C)C)c1` [Compound 1-51, 4-[4-(3-dimethylcarbamoyl-4-{[6-methyl-2-(4-trifluoromethylphenyl)pyridine-3-carbonyl]amino}phenyl)butyryloxy]-5-ethylisophthalic acid dimethyl ester] gave an IC50 of less than 10 nM.

Compound `CCOC(=O)c1cc(C)c(OC(=O)CCCc2ccc(NC(=O)c3ccc(C)nc3-c3ccc(C(F)(F)F)cc3)c(C(=O)N(C)C)c2)c(C(=O)OC)c1` [Compound 1-52, 4-[4-(3-dimethylcarbamoyl-4-{[6-methyl-2-(4-trifluoromethylphenyl)pyridine-3-carbonyl]amino}phenyl)butyryloxy]-5-methylisophthalic acid 1-ethyl ester 3-methyl ester] yielded an IC50 of less than 10 nM.

As to `COC(=O)c1cc(OC)c(OC(=O)CCCc2ccc(NC(=O)c3ccc(C)nc3-c3ccc(C(F)(F)F)cc3)c(C(=O)N(C)C)c2)c(C(=O)OC)c1` [Compound 1-53, 4-[4-(3-dimethylcarbamoyl-4-{[6-methyl-2-(4-trifluoromethylphenyl)pyridine-3-carbonyl]amino}phenyl)butyryloxy]-5-methoxyisophthalic acid dimethyl ester], the IC50 was less than 10 nM.

For the compound `CCOC(=O)c1cc(OC)c(OC(=O)CCCc2ccc(NC(=O)c3ccc(C)nc3-c3ccc(C(F)(F)F)cc3)c(C(=O)N(C)C)c2)c(C(=O)OC)c1` [Compound 1-54, 4-[4-(3-dimethylcarbamoyl-4-{[6-methyl-2-(4-trifluoromethylphenyl)pyridine-3-carbonyl]amino}phenyl)butyryloxy]-5-methoxyisophthalic acid 1-ethyl ester 3-methyl ester], the IC50 was less than 10 nM.

For the compound `Cc1ccc(C(=O)Nc2ccc(CCCC(=O)Oc3ccc(C(=O)OC(C)C)cc3)cc2C(=O)N(C)C)c(-c2ccc(C(F)(F)F)cc2)n1` [Compound 1-63, 4-[4-(3-dimethylcarbamoyl-4-{[6-methyl-2-(4-trifluoromethylphenyl)pyridine-3-carbonyl]amino}phenyl)butyryloxy]benzoic acid isopropyl ester sulfate], the IC50 is less than 10 nM.

`COC(=O)c1cc(C)c(OC(=O)CCCc2ccc(NC(=O)c3ccccc3-c3ccc(C(F)(F)F)cc3)c(C(=O)N(C)C)c2)c(C)c1` [Compound 1-64, 4-[4-(3-dimethylcarbamoyl-4-{(4′-trifluoromethylbiphenyl-2-carbonyl)amino}phenyl)butyryloxy]-3,5-dimethylbenzoic acid methyl ester] displayed an IC50 of less than 10 nM.

Compound `COC(=O)c1cc(C)c(OC(=O)CCCc2ccc(NC(=O)c3ccc(C)nc3-c3ccc(C(F)(F)F)cc3)c(C(=O)N(C)C)c2)c(C)c1` [Compound 1-65, 4-[4-(3-dimethylcarbamoyl-4-{[6-methyl-2-(4-trifluoromethylphenyl)pyridine-3-carbonyl]amino}phenyl)butyryloxy]-3,5-dimethylbenzoic acid methyl ester] registered an IC50 of less than 10 nM.

In turn, `CCc1cc(C(=O)OC)ccc1OC(=O)CCCc1ccc(NC(=O)c2ccccc2-c2ccc(C(F)(F)F)cc2)c(C(=O)N(C)C)c1` [Compound 1-67, 4-[4-(3-dimethylcarbamoyl-4-{(4′-trifluoromethylbiphenyl-2-carbonyl)amino}phenyl)butyryloxy]-3-ethylbenzoic acid methyl ester] came in with an IC50 of less than 10 nM.

As for `COC(=O)c1ccc(OC(=O)CCCc2ccc(NC(=O)c3ccccc3-c3ccc(C(F)(F)F)cc3)c(C(=O)N(C)C)c2)c(C(C)C)c1` [Compound 1-68, 4-[4-(3-dimethylcarbamoyl-4-{(4′-trifluoromethylbiphenyl-2-carbonyl)amino}phenyl)butyryloxy]-3-isopropylbenzoic acid methyl ester], the IC50 is less than 10 nM.

With `COC(=O)c1ccc(OC(=O)CCCc2ccc(NC(=O)c3ccc(C)nc3-c3ccc(C(F)(F)F)cc3)c(C(=O)N(C)C)c2)c(C)c1` [Compound 1-69, 4-[4-(3-dimethylcarbamoyl-4-{[6-methyl-2-(4-trifluoromethylphenyl)pyridine-3-carbonyl]amino}phenyl)butyryloxy]-3-methylbenzoic acid methyl ester], the IC50 was 10 to 100 nM.

With `COC(=O)c1ccc(OC(=O)CCCc2ccc(NC(=O)c3ccc(C)nc3-c3ccc(C(F)(F)F)cc3)c(C(=O)N(C)C)c2)c(C(=O)OC)c1` [Compound 1-70, 4-[4-(3-dimethylcarbamoyl-4-{[6-methyl-2-(4-trifluoromethylphenyl)pyridine-3-carbonyl]amino}phenyl)butyryloxy]isophthalic acid dimethyl ester], the IC50 was less than 10 nM.

In turn, `CCOC(=O)c1ccc(OC(=O)CCCc2ccc(NC(=O)c3ccc(C)nc3-c3ccc(C(F)(F)F)cc3)c(C(=O)N(C)C)c2)cc1` [Compound 1-71, 4-[4-(3-dimethylcarbamoyl-4-{[6-methyl-2-(4-trifluoromethylphenyl)pyridine-3-carbonyl]amino}phenyl)butyryloxy]benzoic acid ethyl ester] came in with an IC50 of less than 10 nM.

In turn, `COC(=O)c1cc(C(=O)OC(C)C)ccc1OC(=O)CCCc1ccc(NC(=O)c2ccc(C)nc2-c2ccc(C(F)(F)F)cc2)c(C(=O)N(C)C)c1` [Compound 1-72, 4-[4-(3-dimethylcarbamoyl-4-{[6-methyl-2-(4-trifluoromethylphenyl)pyridine-3-carbonyl]amino}phenyl)butyryloxy]isophthalic acid 1-isopropyl ester 3-methyl ester] came in with an IC50 of less than 10 nM.

In turn, `CCc1cc(C(=O)OC)cc(Cl)c1OC(=O)CCCc1ccc(NC(=O)c2ccc(C)nc2-c2ccc(C(F)(F)F)cc2)c(C(=O)N(C)C)c1` [Compound 1-73, 3-chloro-4-[4-(3-dimethylcarbamoyl-4-{[6-methyl-2-(4-trifluoromethylphenyl)pyridine-3-carbonyl]amino}phenyl)butyryloxy]-5-ethylbenzoic acid methyl ester] registered an IC50 of less than 10 nM.

Regarding `COC(=O)c1cc(Cl)c(OC(=O)CCCc2ccc(NC(=O)c3ccc(C)nc3-c3ccc(C(F)(F)F)cc3)c(C(=O)N(C)C)c2)c(C(C)C)c1` [Compound 1-74, 3-chloro-4-[4-(3-dimethylcarbamoyl-4-{[6-methyl-2-(4-trifluoromethylphenyl)pyridine-3-carbonyl]amino}phenyl)butyryloxy]-5-isopropylbenzoic acid methyl ester], the IC50 is less than 10 nM.

`CCCOC(=O)c1cc(Cl)c(OC(=O)CCCc2ccc(NC(=O)c3ccc(C)nc3-c3ccc(C(F)(F)F)cc3)c(C(=O)N(C)C)c2)c(OC)c1` [Compound 1-75, 3-chloro-4-[4-(3-dimethylcarbamoyl-4-{[6-methyl-2-(4-trifluoromethylphenyl)pyridine-3-carbonyl]amino}phenyl)butyryloxy]-5-methoxybenzoic acid propyl ester] showed an IC50 of less than 10 nM.

Compound `CC(C)OCCOC(=O)c1ccc(OC(=O)CCCc2ccc(NC(=O)c3ccccc3-c3ccc(C(F)(F)F)cc3)c(C(=O)N(C)C)c2)cc1` [Compound 1-76, 4-[4-(3-dimethylcarbamoyl-4-{(4′-trifluoromethylbiphenyl-2-carbonyl)amino}phenyl)butyryloxy]benzoic acid 2-isopropoxyethyl ester] gave a half-inhibitory concentration (IC50) of less than 10 nM.

With `CC(=O)NCCOC(=O)c1ccc(OC(=O)CCCc2ccc(NC(=O)c3ccccc3-c3ccc(C(F)(F)F)cc3)c(C(=O)N(C)C)c2)cc1` [Compound 1-77, 4-[4-(3-dimethylcarbamoyl-4-{(4′-trifluoromethylbiphenyl-2-carbonyl)amino}phenyl)butyryloxy]benzoic acid 2-acetylaminoethyl ester], the IC50 was less than 10 nM.

As to `CN(C)C(=O)c1cc(CCCC(=O)Oc2ccc(C(=O)OCC(=O)OCc3ccccc3)cc2)ccc1NC(=O)c1ccccc1-c1ccc(C(F)(F)F)cc1` [Compound 1-78], the IC50 was less than 10 nM.

Compound `CN(C)C(=O)c1cc(CCCC(=O)Oc2ccc(C(=O)OCc3ccc(Cl)cc3)cc2)ccc1NC(=O)c1ccccc1-c1ccc(C(F)(F)F)cc1` [Compound 1-79, 4-[4-(3-dimethylcarbamoyl-4-{(4′-trifluoromethylbiphenyl-2-carbonyl)amino}phenyl)butyryloxy]benzoic acid 4-chlorobenzyl ester] showed an IC50 of less than 10 nM.

Compound `Cc1ccc(C(=O)Nc2ccc(CCCC(=O)Oc3ccc(C(=O)OCc4ccccc4)cc3)cc2C(=O)N(C)C)c(-c2ccc(C(F)(F)F)cc2)n1` [Compound 1-80, 4-[4-(3-dimethylcarbamoyl-4-{[6-methyl-2-(4-trifluoromethylphenyl)pyridine-3-carbonyl]amino}phenyl)butyryloxy]benzoic acid benzyl ester] gave an IC50 of less than 10 nM.

As for `CN(C)C(=O)c1cc(CCCC(=O)Oc2ccc(C(=O)OCc3ccccn3)cc2)ccc1NC(=O)c1ccccc1-c1ccc(C(F)(F)F)cc1` [Compound 1-82, 4-[4-(3-dimethylcarbamoyl-4-{(4′-trifluoromethylbiphenyl-2-carbonyl)amino}phenyl)butyryloxy]benzoic acid pyridin-2-ylmethyl ester], the IC50 was less than 10 nM.
